Data taken from patent US7846925B2, “Azolidinone-vinyl fused-benzene derivatives” (Merck Serono SA, priority 2002, dated 2010).

Legend:
[1] = tested on: C5a-mediated AKT phosphorylation; experiment: Cell based ELISA: Akt/PKB phosphorylation in Raw 264-7 macrophages after stimulation with C5a; details: Mus musculus, RAW264.7, compound at 1 μM, 50 nM C5a, read-out: percentage of inhibition of C5a-mediated AKT phosphorylation
Description: b) Cell Based ELISA to Monitor PI3K Inhibition:
Measurement of Akt/PKB phosphorylation in macrophages after stimulation with C5a: Raw 264: Raw 264-7 macrophages (cultured in DMEM-F12 medium containing 10% Fetal Calf serum and antibiotics) are plated at 20'000 cells/well in a 96 MTP 24 h before cell stimulation. Previous to the stimulation with 50 nM of Complement 5a (C5a; which is a well known chemokine which stimulates the used cells) during 5 minutes, Cells are serum starved for 2 h, and pretreated with inhibitors for 20 minutes. After stimulation cells are fixed in 4% formaldehyde for 20 minutes and washed 3 times in PBS containing 1% Triton X-100 (PBS/Triton). Endogenous peroxidase is blocked by a 20 minutes incubation in 0.6% H2O2 and 0.1% Sodium Azide in PBS/Triton and washed 3 times in PBS/Triton. Cells are then blocked by 60 minutes incubation with 10% fetal calf serum in PBS/Triton. Next, phosphorylated Atk/PKB is detected by an overnight incubation at 4° C. with first antibody (anti phospho Serine 473 Akt 1HC, Cell Signaling) diluted 800-fold in PBS/Triton, containing 5% bovine serum albumin (BSA). After 3 washes in PBS/Triton, cells are incubated for 60 minutes with a peroxidase conjugated goat-anti-rabbit antibody (1/400 dilution in PBS/Triton, containing 5% BSA), washed 3 times in PBS/Triton, and 2 times in PBS and further incubated in 100 μl of substrate reagent solution (R&D) for 20 minutes.
The reaction is stopped by addition of 50 μl of 1 M H2SO4 and absorbance is read at 450 nm.
The values indicated reflect the percentage of inhibition of AKT phosphorylation as compared to basal level. Said values show a clear effect of the azolidinone-vinyl fused-benzene compounds on the activation of AKT phosphorylation in macrophages.

[2] = target: Human recombinant GST-PI3Kγ (Homo sapiens, UniProt P48736); experiment: High Throughput PI3K Lipid Kinase Assay (scintillation proximity assay); format: biochemical
Description: a) High Throughput PI3K Lipid Kinase Assay (Binding Assay):
The assay combines the scintillation proximity assay technology (SPA, Amersham) with the capacity of neomycin (a polycationic antibiotic) to bind phospholipids with high affinity and specificity. The Scintillation Proximity Assay is based on the properties of weakly emitting isotopes (such as ^3H, ^125I, ^33P). Coating SPA beads with neomycin allows the detection of phosphorylated lipid substrates after incubation with recombinant PI3K and radioactive ATP in the same well, by capturing the radioactive phospholipids to the SPA beads through their specific binding to neomycin.
To a 384 wells MTP containing 5 μl of the test compound of formula (I) (solubilized in 6% DMSO; to yield a concentration of 100, 30, 10, 3, 1, 0.3, 0.1, 0.03, 0.01, 0.001 μM of the test compound), the following assay components are added. 1) 5 μl (58 ng) of Human recombinant GST-PI3Kγ (in Hepes 40 mM, pH 7.4, DTT 1 mM and ethyleneglycol 5%) 2) 10 μl of lipid micelles and 3) 10 μl of Kinase buffer ([^33P]γATP 45 μM/60 nCi, MgCl2 30 mM, DTT 1 mM, β-Glycerophosphate 1 mM, Na3VO4 100 μM, Na Cholate 0.3%, in Hepes 40 mM, pH 7.4). After incubation at room temperature for 180 minutes, with gentle agitation, the reaction is stopped by addition of 60 μl of a solution containing 100 μg of neomycin-coated PVT SPA beads in PBS containing ATP 10 mM and EDTA 5 mM. The assay is further incubated at room temperature for 60 minutes with gentle agitation to allow binding of phospholipids to neomycin-SPA beads. After precipitation of the neomycin-coated PVT SPA beads for 5 minutes at 1500×g, radioactive PtdIns(3)P is quantified by scintillation counting in a Wallac MicroBeta™ plate counter.
The values indicated in respect of PI3Kγ refer to the IC50 (μM), i.e. the amount necessary to achieve 50% inhibition of said target. Said values show a considerable potency of the azolidinone-vinyl fused-benzene compounds with regard to PI3Kγ.

[3] = in vivo; cited from earlier work
Class I PI3-kinases = details: read-out: IC50 against each of these PI3-kinases; cited from earlier work
CK2 protein kinase = CK2 protein kinase (Homo sapiens, UniProt P68400); details: cited from earlier work
phospholipases = details: cited from earlier work
neutrophil = details: cited from earlier work

Sequence of Human recombinant GST-PI3Kγ (P48736 whole entry): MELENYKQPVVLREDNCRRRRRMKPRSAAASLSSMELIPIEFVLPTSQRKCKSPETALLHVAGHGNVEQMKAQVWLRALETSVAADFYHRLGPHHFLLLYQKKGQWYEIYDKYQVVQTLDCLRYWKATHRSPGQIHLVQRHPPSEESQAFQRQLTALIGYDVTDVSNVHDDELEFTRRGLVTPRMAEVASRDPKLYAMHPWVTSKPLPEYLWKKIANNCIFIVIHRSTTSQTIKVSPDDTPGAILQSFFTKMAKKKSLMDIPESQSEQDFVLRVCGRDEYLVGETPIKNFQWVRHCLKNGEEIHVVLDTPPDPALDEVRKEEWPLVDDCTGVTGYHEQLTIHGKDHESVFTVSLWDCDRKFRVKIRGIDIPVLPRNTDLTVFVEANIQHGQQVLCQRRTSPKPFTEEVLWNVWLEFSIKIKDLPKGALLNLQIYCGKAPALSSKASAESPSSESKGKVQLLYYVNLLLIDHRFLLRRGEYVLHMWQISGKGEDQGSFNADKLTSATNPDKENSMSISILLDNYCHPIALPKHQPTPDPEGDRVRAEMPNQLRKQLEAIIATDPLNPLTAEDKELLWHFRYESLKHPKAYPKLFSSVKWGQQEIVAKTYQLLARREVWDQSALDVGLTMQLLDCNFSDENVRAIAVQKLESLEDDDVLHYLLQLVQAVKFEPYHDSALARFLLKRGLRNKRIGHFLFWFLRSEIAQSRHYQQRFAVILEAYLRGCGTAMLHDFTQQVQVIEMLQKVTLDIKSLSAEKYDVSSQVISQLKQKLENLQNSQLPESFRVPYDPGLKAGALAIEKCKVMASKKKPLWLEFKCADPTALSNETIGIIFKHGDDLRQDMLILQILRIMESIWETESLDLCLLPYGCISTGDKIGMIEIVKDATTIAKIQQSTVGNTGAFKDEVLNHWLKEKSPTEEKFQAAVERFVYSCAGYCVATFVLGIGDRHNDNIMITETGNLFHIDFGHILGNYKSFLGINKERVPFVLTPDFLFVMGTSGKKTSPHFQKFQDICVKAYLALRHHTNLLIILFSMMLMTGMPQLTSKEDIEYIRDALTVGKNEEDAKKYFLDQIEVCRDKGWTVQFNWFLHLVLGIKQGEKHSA
Sequence of CK2 protein kinase (P68400 whole entry): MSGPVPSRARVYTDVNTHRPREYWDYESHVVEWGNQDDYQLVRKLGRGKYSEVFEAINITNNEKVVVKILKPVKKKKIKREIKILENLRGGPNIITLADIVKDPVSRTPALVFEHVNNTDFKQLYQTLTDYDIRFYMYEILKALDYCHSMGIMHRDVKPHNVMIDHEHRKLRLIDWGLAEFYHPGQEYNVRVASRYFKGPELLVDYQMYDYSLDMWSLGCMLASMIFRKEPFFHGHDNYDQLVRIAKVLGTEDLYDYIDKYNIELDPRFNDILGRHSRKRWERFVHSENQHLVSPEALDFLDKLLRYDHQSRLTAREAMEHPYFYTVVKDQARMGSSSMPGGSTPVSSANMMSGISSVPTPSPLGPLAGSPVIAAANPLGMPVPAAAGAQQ

O=C1NC(=O)/C(=C/c2ccc3c(c2)OCO3)S1 [Example 1, 5-(1,3-benzodioxol-5-ylmethylene)-1,3-thiazolidine-2,4-dione]
inhibition at 1 µM [1]: ~100%

O=C1NC(=O)C(=Cc2ccc3ncnc(N4CCCCC4)c3c2)S1 [Example 19, 5-[(4-piperidin-1-ylquinazolin-6-yl)methylene]-1,3-thiazolidine-2,4-dione]
inhibition at 1 µM [1]: ~100%

N=C1NC(=O)/C(=C/c2ccc3ncnc(N4CCCCC4)c3c2)S1 [Example 41, 2-Imino-5-(4-piperidine-quinazolin-6-ylmethylene)-thiazolidin-4-one]
IC50 [2]: < 1000 nM

COc1ccccc1Cn1cnc2ccc(C=C3SC(=O)NC3=O)cc21 [Example 61, 5-{[1-(2-methoxybenzyl)-1H-benzimidazol-6-yl]methylene}-1,3-thiazolidine-2,4-dione]
IC50 [2]: < 1000 nM

N=C1NC(=O)/C(=C/c2ccc3nccnc3c2)S1 [Example 66, 2-Imino-5-quinoxalin-6-ylmethylene-thiazolidin-4-one]
IC50 [2]: < 1000 nM
inhibition at 1 µM [1]: ~100%

O=C1NC(=O)/C(=C/c2ccc3occ(/C=C/C(=O)N4CCCCC4)c3c2)S1 [Example 73, 5-[3-(3-Oxo-3-piperidin-1-yl-propenyl)-benzofuran-5-ylmethylene]-thiazolidine-2,4-dione]
IC50 [2]: < 1000 nM

O=C1NC(=O)/C(=C/c2ccc3c(c2)N(Cc2ccccc2)C(=O)CO3)S1 [Example 103, 5-(4-Benzyl-3-oxo-3,4-dihydro-2H-benzo[1,4]oxazin-6-ylmethylene)-thiazolidine-2,4-dione]
IC50 [2]: < 1000 nM

O=C1NC(=O)/C(=C/c2ccc3nsnc3c2)S1 [Example 107, 5-Benzo[1,2,5]thiadiazol-5-ylmethylene-thiazolidine-2,4-ione]
IC50 [2]: < 1000 nM
inhibition at 1 µM [1]: ~100%

COC(=O)c1cc2ccc(/C=C3\SC(=O)NC3=O)cc2o1 [Example 110, 5-(2-Carboxymethyl-benzofuran-6-ylmethylene)-thiazolidine-2,4-dione]
IC50 [2]: < 1000 nM

CC(C)(C)c1cc(/C=C2\SC(=N)NC2=O)cc2c1OCC2(C)C [JA]
activity in a paw swelling assay [3]: inactive

O=c1cc(N2CCOCC2)oc2c(-c3ccccc3)cccc12 [LY294002]
IC50 (Class I PI3-kinases): 15000 to 20000 nM
IC50 (CK2 protein kinase): 5000 to 10000 nM
inhibitory activity on phospholipases (phospholipases): some inhibitory activity
neutrophil migration (neutrophil): block
superoxide release (neutrophil): block
